Assay results as given in patent publication US8426408B2, “Pyrimidine inhibitors of kinases” (AbbVie Inc., priority 2009, dated 2013).
Each block holds one compound with its values, some of them ahead of it.

Columns and labels:
Assay type in all cases: biochemical
KDR = KDR (Homo sapiens, UniProt P35968); experiment: KDR HTRF in vitro kinase assay; set-up: purified enzyme (His6-KDR 789-1354, MW 63 kD); His6 (N); details: 1 mM ATP; read-out: KDR enzyme inhibition data (Ki)
Summary of the method: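 His6-KDR 789-1354 (7 ng/well) with 0.5 μM biotinylated peptide substrate and 1 mM ATP in HEPES pH 7.1, MgCl2/MnCl2, 60 min at room temperature. EDTA-quenched, detected by streptavidin-XL-665 plus Eu-kryptate anti-phosphotyrosine HTRF after 3 h; IC50 from 620/665 nm ratio.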

Aurora B = target: T1, Aurora B (Homo sapiens, UniProt Q96GD4); experiment: Aurora B enzyme inhibition (time-resolved fluorescence, histone H3 peptide); details: 1 mM ATP
T1 construct: Active Aurora B enzyme (recombinant residues 1-344)
Summary of the method: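 Recombinant Aurora B (residues 1-344) with GST-INCENP phosphorylated biotinylated histone H3 (1-21) peptide at 1 mM ATP in HEPES pH 7.4 with MgCl2, orthovanadate and Triton X-100 for 1 h. After EDTA stop, the phosphopeptide was detected by TR-FRET (Eu-cryptate anti-phospho-H3 / SA-APC, 665/615 nm ratio). IC50 from an exponential fit.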

Aurora A = target: T2, Aurora A (Homo sapiens, UniProt O14965); experiment: Aurora A enzyme inhibition (time-resolved fluorescence, STK substrate-2); details: 1 mM ATP
T2 sequence (O14965 1-403): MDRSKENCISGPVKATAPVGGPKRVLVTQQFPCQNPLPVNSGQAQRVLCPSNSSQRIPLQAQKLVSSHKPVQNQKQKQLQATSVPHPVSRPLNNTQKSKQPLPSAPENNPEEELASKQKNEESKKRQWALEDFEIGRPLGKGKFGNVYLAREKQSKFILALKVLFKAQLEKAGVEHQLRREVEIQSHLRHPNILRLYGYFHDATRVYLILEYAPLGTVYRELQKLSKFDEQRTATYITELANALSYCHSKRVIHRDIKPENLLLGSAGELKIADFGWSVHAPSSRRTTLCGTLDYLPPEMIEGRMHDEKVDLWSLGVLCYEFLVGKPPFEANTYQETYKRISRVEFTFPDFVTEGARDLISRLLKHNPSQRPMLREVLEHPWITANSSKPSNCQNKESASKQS
Summary of the method: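 Active enzyme incubated 1 h with biotinylated STK substrate-2, 1 mM ATP and inhibitor in Hepes pH 7.4 with MgCl2, orthovanadate and Triton X-100. EDTA stop; phosphopeptide detected by Eu-cryptate anti-phospho-STK/SA-XL665 TR-FRET (665/615 nm ratio); IC50 by exponential fit.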

Sequence of KDR (P35968 789-1354): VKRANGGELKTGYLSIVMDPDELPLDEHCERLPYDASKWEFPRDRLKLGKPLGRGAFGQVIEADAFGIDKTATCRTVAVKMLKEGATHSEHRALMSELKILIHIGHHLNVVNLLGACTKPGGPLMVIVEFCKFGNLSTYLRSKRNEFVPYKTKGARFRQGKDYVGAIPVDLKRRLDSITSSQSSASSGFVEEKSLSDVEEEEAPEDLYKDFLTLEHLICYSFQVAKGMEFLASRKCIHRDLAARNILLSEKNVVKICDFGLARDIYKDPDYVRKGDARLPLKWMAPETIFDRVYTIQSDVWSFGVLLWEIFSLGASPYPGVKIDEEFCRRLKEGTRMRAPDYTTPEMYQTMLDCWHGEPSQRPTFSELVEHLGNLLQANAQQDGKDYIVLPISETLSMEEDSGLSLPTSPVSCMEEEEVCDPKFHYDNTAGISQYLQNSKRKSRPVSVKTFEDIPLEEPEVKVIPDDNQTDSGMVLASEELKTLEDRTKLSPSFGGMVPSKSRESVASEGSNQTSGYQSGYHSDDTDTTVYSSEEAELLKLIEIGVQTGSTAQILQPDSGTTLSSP
T1 sequence (Q96GD4 whole entry, the tested form may be a part): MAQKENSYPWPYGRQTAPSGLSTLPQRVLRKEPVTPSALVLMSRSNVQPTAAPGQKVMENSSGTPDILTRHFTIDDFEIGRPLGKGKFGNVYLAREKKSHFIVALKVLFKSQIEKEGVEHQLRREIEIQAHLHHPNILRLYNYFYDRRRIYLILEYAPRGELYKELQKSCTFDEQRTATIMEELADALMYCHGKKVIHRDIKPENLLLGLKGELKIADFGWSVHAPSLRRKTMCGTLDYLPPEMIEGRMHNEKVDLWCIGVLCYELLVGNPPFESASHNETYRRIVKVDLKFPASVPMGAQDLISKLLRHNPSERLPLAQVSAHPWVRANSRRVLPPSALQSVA
T1 sequence (Q9NQS7 826-918 partner limits assumed): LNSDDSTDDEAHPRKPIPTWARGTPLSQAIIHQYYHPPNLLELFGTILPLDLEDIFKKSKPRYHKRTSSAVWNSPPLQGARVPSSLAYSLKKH

Compound: CCn1cc(Nc2ncc(C(F)(F)F)c(N[C@@H]3[C@H](C(=O)NCCO)[C@H]4C=C[C@@H]3C4)n2)cn1.CCn1cc(Nc2ncc(C(F)(F)F)c(N[C@H]3[C@@H](C(=O)NCCO)[C@@H]4C=C[C@H]3C4)n2)cn1 (mixture of isomers) [Example 68, (1S,2S,3R,4R)-3-{[2-[(1-ethyl-1H-pyrazol-4-yl)amino]-5-(trifluoromethyl)pyrimidin-4-yl]amino}-N-(2-hydroxyethyl)bicyclo[2.2.1]hept-5-ene-2-carboxamide and (1R,2R,3S,4S)-3-{[2-[(1-ethyl-1H-pyrazol-4-yl)amino]-5-(trifluoromethyl)pyrimidin-4-yl]amino}-N-(2-hydroxyethyl)bicyclo[2.2.1]hept-5-ene-2-carboxamide]
Ki (KDR): < 100 nM
Ki (Aurora B): < 100 nM
Ki (Aurora A): < 100 nM

Compound: (1S,2S,3R,4R)-3-[(5-chloro-2-{[1-(1-methylpiperidin-4-yl)-1H-pyrazol-4-yl]amino}pyrimidin-4-yl)amino]bicyclo[2.2.1]hept-5-ene-2-carboxamide and (1R,2R,3S,4S)-3-[(5-chloro-2-{[1-(1-methylpiperidin-4-yl)-1H-pyrazol-4-yl]amino}pyrimidin-4-yl)amino]bicyclo[2.2.1]hept-5-ene-2-carboxamide [Example 40]
Ki (KDR): < 100 nM
Ki (Aurora B): < 100 nM
Ki (Aurora A): < 100 nM

Compound: NC(=O)[C@@H]1[C@H](Nc2nc(Nc3cnn(CC(F)(F)F)c3)ncc2Cl)[C@H]2C=C[C@@H]1C2 [Example 66, (1S,2S,3R,4R)-3-[(5-chloro-2-{[1-(2,2,2-trifluoroethyl)-1H-pyrazol-4-yl]amino}pyrimidin-4-yl)amino]bicyclo[2.2.1]hept-5-ene-2-carboxamide]
Ki (KDR): < 100 nM
Ki (Aurora B): < 100 nM
Ki (Aurora A): < 100 nM

Compound: CC(C)OC(=O)Cn1cc(Nc2ncc(Br)c(N[C@@H]3[C@H](C(N)=O)[C@H]4C=C[C@@H]3C4)n2)cn1.CC(C)OC(=O)Cn1cc(Nc2ncc(Br)c(N[C@H]3[C@@H](C(N)=O)[C@@H]4C=C[C@H]3C4)n2)cn1 (mixture of isomers) [Example 55, isopropyl{4-[(4-{[(1S,2S,3R,4R)-3-(aminocarbonyl)bicyclo[2.2.1]hept-5-ene-2-yl]amino}-5-bromopyrimidin-2-yl)amino]-1H-pyrazol-1-yl}acetate and isopropyl{4-[(4-{[(1R,2R,3S,4S)-3-(aminocarbonyl)bicyclo[2.2.1]hept-5-ene-2-yl]amino}-5-bromopyrimidin-2-yl)amino]-1H-pyrazol-1-yl}acetate]
Ki (KDR): < 100 nM
Ki (Aurora B): < 100 nM
Ki (Aurora A): < 100 nM

Compound: isopropyl{4-[(4-{[(1R,2R,3S,4S)-3-(aminocarbonyl)bicyclo[2.2.1]hept-5-ene-2-yl]amino}-5-fluoropyrimidin-2-yl)amino]-1H-pyrazol-1-yl}acetate and isopropyl{4-[(4-{[(1S,2S,3R,4R)-3-(aminocarbonyl)bicyclo[2.2.1]hept-5-ene-2-yl]amino}-5-fluoropyrimidin-2-yl)amino]-1H-pyrazol-1-yl}acetate [Example 6]
Ki (KDR): 100 to 1000 nM
Ki (Aurora B): 100 to 1000 nM
Ki (Aurora A): 100 to 1000 nM

Compound: CNC(=O)[C@@H]1[C@H](Nc2nc(Nc3cnn(C)c3)ncc2Br)[C@H]2C=C[C@@H]1C2.CNC(=O)[C@H]1[C@@H](Nc2nc(Nc3cnn(C)c3)ncc2Br)[C@@H]2C=C[C@H]1C2 (mixture of isomers) [Example 48, (1S,2S,3R,4R)-3-({5-bromo-2-[(1-methyl-1H-pyrazol-4-yl)amino]pyrimidin-4-yl}amino)-N-methylbicyclo[2.2.1]hept-5-ene-2-carboxamide and (1R,2R,3S,4S)-3-({5-bromo-2-[(1-methyl-1H-pyrazol-4-yl)amino]pyrimidin-4-yl}amino)-N-methylbicyclo[2.2.1]hept-5-ene-2-carboxamide]
Ki (KDR): < 100 nM
Ki (Aurora B): < 100 nM
Ki (Aurora A): < 100 nM

Compound: CCn1cc(Nc2ncc(Cl)c(N[C@H]3[C@@H](C(N)=O)[C@@H]4C=C[C@H]3C4)n2)cn1 [Example 42, (1S,2S,3R,4R)-3-({5-chloro-2-[(1-ethyl-1H-pyrazol-4-yl)amino]pyrimidin-4-yl}amino)bicyclo[2.2.1]hept-5-ene-2-carboxamide]
Ki (KDR): < 100 nM
Ki (Aurora B): < 100 nM
Ki (Aurora A): < 100 nM

Compound: NC(=O)[C@@H]1[C@H](Nc2nc(Nc3cnn(CCN4CCOCC4)c3)ncc2Br)[C@H]2C=C[C@@H]1C2.NC(=O)[C@H]1[C@@H](Nc2nc(Nc3cnn(CCN4CCOCC4)c3)ncc2Br)[C@@H]2C=C[C@H]1C2 (mixture of isomers) [Example 39, (1S,2S,3R,4R)-3-[(5-bromo-2-{[1-(2-morpholin-4-ylethyl)-1H-pyrazol-4-yl]amino}pyrimidin-4-yl)amino]bicyclo[2.2.1]hept-5-ene-2-carboxamide and (1R,2R,3S,4S)-3-[(5-bromo-2-{[1-(2-morpholin-4-ylethyl)-1H-pyrazol-4-yl]amino}pyrimidin-4-yl)amino]bicyclo[2.2.1]hept-5-ene-2-carboxamide]
Ki (KDR): < 100 nM
Ki (Aurora B): < 100 nM
Ki (Aurora A): < 100 nM

Compound: NC(=O)[C@@H]1[C@H](Nc2nc(Nc3cnn([C@H]4CCNC4)c3)ncc2Cl)[C@H]2C=C[C@@H]1C2 [Example 72, (1S,2S,3R,4R)-3-{[5-chloro-2-({1-[(3S)-pyrrolidin-3-yl]-1H-pyrazol-4-yl}amino)pyrimidin-4-yl]amino}bicyclo[2.2.1]hept-5-ene-2-carboxamide]
Ki (KDR): < 100 nM
Ki (Aurora B): < 100 nM
Ki (Aurora A): < 100 nM

Compound: CNC(=O)Cn1cc(Nc2ncc(Cl)c(N[C@H]3[C@@H](C(N)=O)[C@@H]4C=C[C@H]3C4)n2)cn1 [Example 75, (1S,2S,3R,4R)-3-{[5-chloro-2-({1-[2-(methylamino)-2-oxoethyl]-1H-pyrazol-4-yl}amino)pyrimidin-4-yl]amino}bicyclo[2.2.1]hept-5-ene-2-carboxamide]
Ki (KDR): < 100 nM
Ki (Aurora B): < 100 nM
Ki (Aurora A): < 100 nM

Next, values leading:

Ki (KDR): < 100 nM
Ki (Aurora B): < 100 nM
Ki (Aurora A): < 100 nM
Compound: NC(=O)[C@@H]1[C@H](Nc2nc(Nc3cnn(C4CNC4)c3)ncc2Cl)[C@H]2C=C[C@@H]1C2 [Example 81, (1S,2S,3R,4R)-3-({2-[(1-azetidin-3-yl-1H-pyrazol-4-yl)amino]-5-chloropyrimidin-4-yl}amino)bicyclo[2.2.1]hept-5-ene-2-carboxamide]

Ki (KDR): < 100 nM
Ki (Aurora B): < 100 nM
Ki (Aurora A): < 100 nM
Compound: CNC(=O)Cn1cc(Nc2ncc(Br)c(N[C@H]3[C@@H](C(N)=O)[C@@H]4C=C[C@H]3C4)n2)cn1 [Example 77, (1S,2S,3R,4R)-3-{[5-bromo-2-({1-[2-(methylamino)-2-oxoethyl]-1H-pyrazol-4-yl}amino)pyrimidin-4-yl]amino}bicyclo[2.2.1]hept-5-ene-2-carboxamide]

Ki (KDR): < 100 nM
Ki (Aurora B): < 100 nM
Ki (Aurora A): < 100 nM
Compound: NC(=O)[C@@H]1[C@H](Nc2nc(Nc3cnn(CCN4CCCC4)c3)ncc2Br)[C@H]2C=C[C@@H]1C2 (racemic) [Example 44, (1S,2S,3R,4R)-3-[(5-bromo-2-{[1-(2-pyrrolidin-1-ylethyl)-1H-pyrazol-4-yl]amino}pyrimidin-4-yl)amino]bicyclo[2.2.1]hept-5-ene-2-carboxamide and (1R,2R,3S,4S)-3-[(5-bromo-2-{[1-(2-pyrrolidin-1-ylethyl)-1H-pyrazol-4-yl]amino}pyrimidin-4-yl)amino]bicyclo[2.2.1]hept-5-ene-2-carboxamide]

Ki (KDR): < 100 nM
Ki (Aurora B): < 100 nM
Ki (Aurora A): < 100 nM
Compound: CCN(CC)CCn1cc(Nc2ncc(Cl)c(N[C@H]3[C@@H](C(N)=O)[C@@H]4C=C[C@H]3C4)n2)cn1 (racemic) [Example 35, (1S,2S,3R,4R)-3-{[5-chloro-2-({1-[2-(diethylamino)ethyl]-1H-pyrazol-4-yl}amino)pyrimidin-4-yl]amino}bicyclo[2.2.1]hept-5-ene-2-carboxamide and (1R,2R,3S,4S)-3-{[5-chloro-2-({1-[2-(diethylamino)ethyl]-1H-pyrazol-4-yl}amino)pyrimidin-4-yl]amino}bicyclo[2.2.1]hept-5-ene-2-carboxamide]

Ki (KDR): < 100 nM
Ki (Aurora B): < 100 nM
Ki (Aurora A): < 100 nM
Compound: NC(=O)[C@@H]1[C@H](Nc2nc(Nc3cnn(CCN4CCCCC4)c3)ncc2Br)[C@H]2C=C[C@@H]1C2.NC(=O)[C@H]1[C@@H](Nc2nc(Nc3cnn(CCN4CCCCC4)c3)ncc2Br)[C@@H]2C=C[C@H]1C2 (mixture of isomers) [Example 38, (1S,2S,3R,4R)-3-[(5-bromo-2-{[1-(2-piperidin-1-ylethyl)-1H-pyrazol-4-yl]amino}pyrimidin-4-yl)amino]bicyclo[2.2.1]hept-5-ene-2-carboxamide and (1R,2R,3S,4S)-3-[(5-bromo-2-{[1-(2-piperidin-1-ylethyl)-1H-pyrazol-4-yl]amino}pyrimidin-4-yl)amino]bicyclo[2.2.1]hept-5-ene-2-carboxamide]
